Earlier results, collected in patent US20230024950A1, “METHODS FOR TREATING NEURODEGENERATIVE DISORDERS” (Alzheon, Inc., priority 2019, published 2023).

Experiments:
[1] = biological target: Aβ oligomers (Homo sapiens, UniProt P05067); conditions: in vitro
[2] = not given; remark: listed apart in the source

Chain of Aβ oligomers (P05067 672-713 limits assumed): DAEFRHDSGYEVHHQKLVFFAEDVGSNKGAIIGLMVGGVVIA

SMILES	formation of Aβ oligomers [1]	safety profile (Phase 3 trials and safety extension study, exposures of up to 2.5 years)	effect on MRI imaging: brain hippocampal volume (hippocampus atrophy) (Phase 3 trials, mild-to-moderate AD, dose-dependent)	benefit on cognition (subgroup analysis of APOE4/4 homozygotes, 100 mg BID or 150 mg BID over 78 weeks)	cognitive efficacy (subset of APOE4 carriers, especially APOE4/4 homozygotes)	plasma exposure compared with tramiprosate from the Phase 3 studies ([2]; Phase 1b)	pharmacokinetics and oral tolerability compared with tramiprosate ([2]; oral)
NCCCS(=O)(=O)O [Tramiprosate, 3-amino-1-propanesulfonic acid]	inhibits the formation of Aβ oligomers in vitro	favorable safety profile	slowing the reduction of brain hippocampal volume	positive and clinically meaningful benefit on cognition	positive cognitive efficacy		
CC(C)[C@H](N)C(=O)NCCCS(=O)(=O)O [ALZ-801, valyl-3-amino-1-propanesulfonic acid]						bioequivalence to plasma exposures to tramiprosate	improved pharmacokinetics and oral tolerability over tramiprosate
